Measured values from patent US20080305118A1, “Treatment Of Type 1 Diabetes With Inhibitors Of Macrophage Migration Inhibitory Factor” (The Feinstein Institute for Medical Research, priority 2004, published 2008).

How the values were obtained:
[1] = tested on: pancreatic islets of MLD-STZ diabetic mice; assay: Histological examination of pancreas, insulitis score; type: in vivo, mouse; details: CBA/H mice; day 15; FIG. 2D
Protocol: Histological and immunohistochemical examination of pancreas. Pancreata were fixed in neutral buffered formalin and then embedded in paraffin. The fixed blocks were sectioned (7 μm thick) and haematoxylin and eosin staining was performed to assess the incidence and degree of inflammatory changes. Insulitis scoring was performed as previously described (10, 11) by examining at least 15 islets per mouse and graded in a blinded fashion as follows: 0, no infiltrate; 1, peri-ductal infiltrate; 2, peri-islet infiltrate; 3, intraislet infiltrate; and 4, intraislet infiltrate associated with β-cell destruction. At least 15 islets were counted for each mouse. A mean score for each pancreas was calculated by dividing the total score by the number of islets examined. Insulitis scores (IS) are expressed as mean values±SD. Immunohistochemistry was performed on paraffin-embedded sections of formalin-fixed tissue using a previously described microwave-based method (24). For MIF immunostaining, a polyclonal rabbit anti-MIF IgG and control rabbit IgG were used. The examined area of the islet was outlined, and the percentage of MIF-positive islet cells was measured using quantitative Image Analysis System (Optima 6.5, Media Cybernatics, Silver Springs, Md.).

[2] = tested on: spleen mononuclear cells (SMNC); assay: Ex vivo spontaneous adhesion assay (crystal violet) after in vivo treatment; parameters: species or system mouse; details: SMNC from mice treated in vivo, FIG. 3B
Protocol: (§1) Ex vivo lymphoproliferative response and adhesion assay. Spontaneous proliferation of SMNC was determined by incubation of cells (5×10^5/well) from each individual animal in 96-well microplates with 1 μCi ^3H-thymidine (^3H-TdR, ICN). Incorporated radioactivity was measured after 24 h in a Beckman liquid scintillation counter. The analysis of spontaneous adhesion of SMNC (2.5×10^5/well) to a monolayer of L929 fibroblasts or plastic was performed by using crystal violet assay as previously described (21). The absorbance corresponding to the number of adherent cells, was measured at 570 nm.

[3] = tested on: TNF-α; assay: Ex vivo TNF-α production, L929 cytolytic bioassay of culture supernatants; type: in vivo, mouse; details: day 15, 48 h culture, FIG. 4
Protocol: Cell incubation and determination of pro-inflamatory mediators. Resident peritoneal cells (PC), spleen mononuclear cells (SMNC), and pancreatic islets were isolated from individual anti-MIF IgG-treated, ISO-1-treated or control diabetic mice on day 15 after the first injection of STZ, as well as from normal untreated animals. SMNC (5×10^6/well) prepared by Ficoll gradient centrifugation, resident PC (2.5×10^5/well) collected by peritoneal lavage with cold PBS, or pancreatic islets (150-200 islets/well) prepared by collagenase digestion and density gradient purification as described (22), were incubated in 24-well Limbro culture plates in 1 ml of RPMI-1640 culture medium containing 5% fetal bovine serum (FBS) and cell supernatants were collected after 48 h. Concentration of bioactive TNF-α in culture supernatant was determined as previously described (22) using a cytolytic bioassay with actinomycin D-treated fibrosarcoma cell line L929. Nitrite accumulation, an indicator of NO production, was determined in cell culture supernatant using the Griess reaction (22). The expression of intracellular MIF, IFN-γ, MHC II, or iNOS was determined by slight modification of cell-based ELISA protocol (23). Spleen MNC (5×10^5/well) or PC (2.5×10^5/well), were allowed to adhere to poly-L-lysine-precoated 96-well microplates. Following fixation with 4% paraformaldehyde, and washing with 0.1% Triton X-100 in PBS (T/PBS), endogenous peroxidase was quenched with 1% H2O2 in T/PBS, and reaction blocked for 1 h at 37° C. with 10% FBS in T/PBS. […] After washing, the cells were incubated for 1 h with the corresponding secondary antibody (goat anti-rabbit Ig(H+L)-HRP, goat anti-rat Ig(H+L)-HRP or goat anti-mouse Ig(F(ab′)2-specific)-HRP washed again and incubated for 15 min at room temperature in dark with 50 μl of a solution containing 0.4 mg/ml OPD (Sigma), 11.8 mg/ml Na2HPO4×2H2O, 7.3 mg/ml citric acid and 0.015% H2O2. The reaction was stopped with 3N HCl, and the absorbance was measured in a microplate reader at 492 nm in a Titertek microplate reader (Flow).

[4] = tested on: MLD-STZ-induced diabetic mice; assay: MLD-STZ-induced diabetes, weekly blood glucose, prophylactic treatment; type: in vivo, mouse; details: CBA/H mice; prophylactic i.p. treatment; FIG. 2B
Protocol: Diabetes induction and in vivo treatments. Diabetes was induced in adult male mice with multiple subtoxic doses of streptozotocin (MLD-STZ, 40 mg/kg body wt/day i.p. for five consecutive days) as described (21). The impact of polyclonal antibody against MIF was studied by i.p. injection of mice (5-10 per treatment group) with 5 mg/kg of rabbit IgG antibody against mouse […] on days −3, −1, 2 and 5 in relation to the first STZ dose. The effect of ISO-1 was studied by i.p. injection of the drug at a dose of 1 mg/mouse/day, for 14 consecutive days, starting 3 days prior to the first injection with STZ. Control animals received either nonimmune IgG or ISO-1 diluent (DMSO/H2O). Mice were monitored for diabetes by weekly measurement of blood glucose levels using a glucometer (Sensimac®, Imaco, Ludersdorf, Germany). Clinical diabetes was defined by hyperglycemia in non-fasted animals (blood glucose over 11.8 mmol/l).

[5] = biological target: T1, MIF tautomerase (Homo sapiens, UniProt P14174); details: reference (20); cited from earlier work
T1 sequence (P14174 2-115 limits assumed): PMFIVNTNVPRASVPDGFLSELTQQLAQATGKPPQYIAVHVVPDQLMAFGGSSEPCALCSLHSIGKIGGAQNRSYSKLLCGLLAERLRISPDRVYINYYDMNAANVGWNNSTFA

[6] = tested on: iNOS; assay: Intracellular iNOS expression, cell-based ELISA; type: in vivo, mouse; details: macrophages from treated animals vs diabetic animals; FIG. 5A
Protocol: Cell incubation and determination of pro-inflamatory mediators. Resident peritoneal cells (PC), spleen mononuclear cells (SMNC), and pancreatic islets were isolated from individual anti-MIF IgG-treated, ISO-1-treated or control diabetic mice on day 15 after the first injection of STZ, as well as from normal untreated animals. […] Concentration of bioactive TNF-α in culture supernatant was determined as previously described (22) using a cytolytic bioassay with actinomycin D-treated fibrosarcoma cell line L929. Nitrite accumulation, an indicator of NO production, was determined in cell culture supernatant using the Griess reaction (22). The expression of intracellular MIF, IFN-γ, MHC II, or iNOS was determined by slight modification of cell-based ELISA protocol (23). […] After washing, the cells were incubated for 1 h with the corresponding secondary antibody (goat anti-rabbit Ig(H+L)-HRP, goat anti-rat Ig(H+L)-HRP or goat anti-mouse Ig(F(ab′)2-specific)-HRP washed again and incubated for 15 min at room temperature in dark with 50 μl of a solution containing 0.4 mg/ml OPD (Sigma), 11.8 mg/ml Na2HPO4×2H2O, 7.3 mg/ml citric acid and 0.015% H2O2. The reaction was stopped with 3N HCl, and the absorbance was measured in a microplate reader at 492 nm in a Titertek microplate reader (Flow).

[7] = tested on: spleen mononuclear cells (SMNC); assay: Ex vivo lymphoproliferative response (3H-thymidine incorporation) after in vivo treatment; parameters: species or system mouse; details: CBA/H mice treated in vivo; splenocytes day 15 after MLD-STZ; FIG. 3A
Protocol: as §1

[8] = cells from mice treated in vivo

COC(=O)C[C@@H]1CC(c2ccc(O)cc2)=NO1 (racemic) [ISO-1, (S,R)-3-(4-hydroxyphenyl)-4,5-dihydro-5-isoxazole acetic acid methyl ester]
degree of islet infiltration (insulitis) [1]: attenuated inflammation of the islets
spontaneous adhesion of SMNC to plastic [2]: significantly inhibited
adhesion of SMNC to fibroblasts ([2]; L929 fibroblasts): significantly inhibited
TNF-α production by peritoneal macrophages [3, 8]: down-regulated
TNF-α production by spleen MNC [3, 8]: down-regulated
TNF-α production by pancreatic islet cells ([3]; islets from mice treated in vivo): down-regulated
MLD-STZ-induced hyperglycemia (blood glucose levels) [4]: remained euglycemic
MIF tautomerase and biological activity [5]: inhibits
intracellular expression of iNOS in macrophages [6]: significantly reduced
SMNC proliferation, 3H-thymidine incorporation [7]: 25637±2018 cpm
